How the values were obtained:
Experiment in all cases: relative viability (nuclei count vs DMSO), 5 days (fraction); higher = more cells survive
Darinaparsin + Foretinib = compound: C[As](C)SC[C@H](NC(=O)CC[C@H](N)C(=O)O)C(=O)NCC(=O)O [Darinaparsin] + COc1cc2c(Oc3ccc(NC(=O)C4(C(=O)Nc5ccc(F)cc5)CC4)cc3F)ccnc2cc1OCCCN1CCOCC1 [Foretinib] (partner 0.25 µM)
Procedure, shortened: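 Dosing by pin tool came one day after lung cancer cell lines were seeded in 1536-well plates, using either one drug or a fixed anchor-drug dose plus five library-drug doses (not always all listed) in √10 steps. After 5 days, nuclei were counted on 4× images. Relative viability is treated-well nuclei count divided by vehicle-well nuclei count, and values are medians of duplicate plates.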

AZ628 = compound: CC1=C(C=C(C=C1)NC(=O)C2=CC(=CC=C2)C(C)(C)C#N)NC3=CC4=C(C=C3)N=CN(C4=O)C [AZ628]
Procedure, shortened: (§1)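 Five library-drug doses spaced by √10 were pinned onto vehicle-anchored 1536-well plates of lung cancer cell lines that had been kept overnight at 37 °C. Cells went 5 days without medium change, then were fixed, permeabilised and Hoechst-stained together, imaged at 4× and counted by MetaXpress. Viability is the ratio of treated-well to vehicle-well nuclei, taken as a median over plates. Plates required control CV below 25% and at least one doubling.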

QS11 = compound: C1CC2=C(C1)C=C(C=C2)OC3=NC(=C4C(=N3)N(C=N4)CC5=CC=C(C=C5)C6=CC=CC=C6)N[C@@H](CC7=CC=CC=C7)CO [QS11]
Procedure, shortened: as §1

Darinaparsin = compound: C[As](C)SC[C@H](NC(=O)CC[C@H](N)C(=O)O)C(=O)NCC(=O)O [Darinaparsin]
Procedure, shortened: as §1

LU99A
relative viability (Darinaparsin + Foretinib; first compound 0.08 µM): 0.833
relative viability (Darinaparsin + Foretinib; first compound 0.8 µM): 0.703
relative viability (Darinaparsin + Foretinib; first compound 2.53 µM): 0.806
relative viability (Darinaparsin + Foretinib; first compound 8 µM): 0.819
relative viability (AZ628; 0.08 µM): 0.883
relative viability (AZ628; 0.253 µM): 0.807
relative viability (AZ628; 0.8 µM): 0.875
relative viability (AZ628; 2.53 µM): 1.03
relative viability (AZ628; 8 µM): 0.65
relative viability (QS11; 0.08 µM): 0.868
relative viability (QS11; 0.253 µM): 0.99
relative viability (QS11; 0.8 µM): 1.02
relative viability (QS11; 2.53 µM): 1.02
relative viability (QS11; 8 µM): 0.834
relative viability (Darinaparsin; 0.08 µM): 0.929
relative viability (Darinaparsin; 0.8 µM): 1.05
relative viability (Darinaparsin; 2.53 µM): 0.991
relative viability (Darinaparsin; 8 µM): 1.09

LXF-289
relative viability (Darinaparsin + Foretinib; first compound 0.08 µM): 1.07
relative viability (Darinaparsin + Foretinib; first compound 0.8 µM): 0.994
relative viability (Darinaparsin + Foretinib; first compound 2.53 µM): 0.946
relative viability (Darinaparsin + Foretinib; first compound 8 µM): 1.1
relative viability (AZ628; 0.08 µM): 1
relative viability (AZ628; 0.253 µM): 0.986
relative viability (AZ628; 0.8 µM): 0.906
relative viability (AZ628; 2.53 µM): 0.98
relative viability (AZ628; 8 µM): 0.722
relative viability (QS11; 0.08 µM): 1
relative viability (QS11; 0.253 µM): 1.04
relative viability (QS11; 0.8 µM): 0.732
relative viability (QS11; 2.53 µM): 0.902
relative viability (QS11; 8 µM): 0.809
relative viability (Darinaparsin; 0.08 µM): 1.04
relative viability (Darinaparsin; 0.8 µM): 0.994
relative viability (Darinaparsin; 2.53 µM): 0.941
relative viability (Darinaparsin; 8 µM): 1.13

NCI-H23
relative viability (Darinaparsin + Foretinib; first compound 0.08 µM): 0.986
relative viability (Darinaparsin + Foretinib; first compound 0.8 µM): 0.843
relative viability (Darinaparsin + Foretinib; first compound 2.53 µM): 0.891
relative viability (Darinaparsin + Foretinib; first compound 8 µM): 1.06
relative viability (AZ628; 0.08 µM): 1.01
relative viability (AZ628; 0.253 µM): 0.838
relative viability (AZ628; 0.8 µM): 0.721
relative viability (AZ628; 2.53 µM): 0.799
relative viability (AZ628; 8 µM): 0.543
relative viability (QS11; 0.08 µM): 0.995
relative viability (QS11; 0.253 µM): 0.85
relative viability (QS11; 0.8 µM): 0.832
relative viability (QS11; 2.53 µM): 0.832
relative viability (QS11; 8 µM): 0.831
relative viability (Darinaparsin; 0.08 µM): 1.06
relative viability (Darinaparsin; 0.8 µM): 0.843
relative viability (Darinaparsin; 2.53 µM): 1.11
relative viability (Darinaparsin; 8 µM): 1.14

NCI-H322M
relative viability (Darinaparsin + Foretinib; first compound 0.08 µM): 1.04
relative viability (Darinaparsin + Foretinib; first compound 0.8 µM): 1.04
relative viability (Darinaparsin + Foretinib; first compound 2.53 µM): 0.826
relative viability (Darinaparsin + Foretinib; first compound 8 µM): 1.02
relative viability (AZ628; 0.08 µM): 1.1
relative viability (AZ628; 0.253 µM): 0.952
relative viability (AZ628; 0.8 µM): 0.986
relative viability (AZ628; 2.53 µM): 0.95
relative viability (AZ628; 8 µM): 0.788
relative viability (QS11; 0.08 µM): 0.923
relative viability (QS11; 0.253 µM): 0.904
relative viability (QS11; 0.8 µM): 0.998
relative viability (QS11; 2.53 µM): 1.15
relative viability (QS11; 8 µM): 1.41
relative viability (Darinaparsin; 0.08 µM): 1.02
relative viability (Darinaparsin; 0.8 µM): 0.951
relative viability (Darinaparsin; 2.53 µM): 0.767
relative viability (Darinaparsin; 8 µM): 1.03

NCI-H358
relative viability (Darinaparsin + Foretinib; first compound 0.08 µM): 0.758
relative viability (Darinaparsin + Foretinib; first compound 0.8 µM): 0.693
relative viability (Darinaparsin + Foretinib; first compound 2.53 µM): 0.648
relative viability (Darinaparsin + Foretinib; first compound 8 µM): 0.799
relative viability (AZ628; 0.08 µM): 0.846
relative viability (AZ628; 0.253 µM): 0.654
relative viability (AZ628; 0.8 µM): 0.598
relative viability (AZ628; 2.53 µM): 0.583
relative viability (AZ628; 8 µM): 0.435
relative viability (QS11; 0.08 µM): 0.92
relative viability (QS11; 0.253 µM): 0.99
relative viability (QS11; 0.8 µM): 1.11
relative viability (QS11; 2.53 µM): 1.37
relative viability (QS11; 8 µM): 1.01
relative viability (Darinaparsin; 0.08 µM): 1.07
relative viability (Darinaparsin; 0.8 µM): 0.872
relative viability (Darinaparsin; 2.53 µM): 0.832
relative viability (Darinaparsin; 8 µM): 0.984

NCI-H441
relative viability (Darinaparsin + Foretinib; first compound 0.08 µM): 1.2
relative viability (Darinaparsin + Foretinib; first compound 0.8 µM): 1.25
relative viability (Darinaparsin + Foretinib; first compound 2.53 µM): 1.07
relative viability (Darinaparsin + Foretinib; first compound 8 µM): 0.902
relative viability (AZ628; 0.08 µM): 0.932
relative viability (AZ628; 0.253 µM): 1.02
relative viability (AZ628; 0.8 µM): 0.988
relative viability (AZ628; 2.53 µM): 1.06
relative viability (AZ628; 8 µM): 0.787
relative viability (QS11; 0.08 µM): 0.978
relative viability (QS11; 0.253 µM): 1.04
relative viability (QS11; 0.8 µM): 0.92
relative viability (QS11; 2.53 µM): 0.985
relative viability (QS11; 8 µM): 0.855
relative viability (Darinaparsin; 0.08 µM): 1.49
relative viability (Darinaparsin; 0.8 µM): 1.14
relative viability (Darinaparsin; 2.53 µM): 0.991
relative viability (Darinaparsin; 8 µM): 1.26

NCI-H460
relative viability (Darinaparsin + Foretinib; first compound 0.08 µM): 1.04
relative viability (Darinaparsin + Foretinib; first compound 0.8 µM): 1.04
relative viability (Darinaparsin + Foretinib; first compound 2.53 µM): 1.03
relative viability (Darinaparsin + Foretinib; first compound 8 µM): 1.33
relative viability (AZ628; 0.08 µM): 0.977
relative viability (AZ628; 0.253 µM): 0.996
relative viability (AZ628; 0.8 µM): 0.908
relative viability (AZ628; 2.53 µM): 1.04
relative viability (AZ628; 8 µM): 0.673
relative viability (QS11; 0.08 µM): 1.05
relative viability (QS11; 0.253 µM): 1.02
relative viability (QS11; 0.8 µM): 0.777
relative viability (QS11; 2.53 µM): 0.96
relative viability (QS11; 8 µM): 0.796
relative viability (Darinaparsin; 0.08 µM): 1.1
relative viability (Darinaparsin; 0.8 µM): 1
relative viability (Darinaparsin; 2.53 µM): 0.997
relative viability (Darinaparsin; 8 µM): 1.35

NCI-H522
relative viability (AZ628; 0.08 µM): 0.922
relative viability (AZ628; 0.253 µM): 0.827
relative viability (AZ628; 0.8 µM): 0.755
relative viability (AZ628; 2.53 µM): 1.11
relative viability (AZ628; 8 µM): 0.815
relative viability (QS11; 0.08 µM): 0.872
relative viability (QS11; 0.253 µM): 0.96
relative viability (QS11; 0.8 µM): 0.934
relative viability (QS11; 2.53 µM): 0.944
relative viability (QS11; 8 µM): 0.875
relative viability (Darinaparsin; 0.08 µM): 0.969
relative viability (Darinaparsin; 0.8 µM): 0.992
relative viability (Darinaparsin; 2.53 µM): 0.972
relative viability (Darinaparsin; 8 µM): 1.07

NCI-H1648
relative viability (AZ628; 0.08 µM): 1.14
relative viability (AZ628; 0.253 µM): 1.08
relative viability (AZ628; 0.8 µM): 0.726
relative viability (AZ628; 2.53 µM): 0.597
relative viability (AZ628; 8 µM): 0.641
relative viability (QS11; 0.08 µM): 0.748
relative viability (QS11; 0.253 µM): 0.972
relative viability (QS11; 0.8 µM): 0.744
relative viability (QS11; 2.53 µM): 0.978
relative viability (QS11; 8 µM): 1.11
relative viability (Darinaparsin; 0.08 µM): 0.735
relative viability (Darinaparsin; 0.8 µM): 0.803
relative viability (Darinaparsin; 8 µM): 0.975

NCI-H1792
relative viability (AZ628; 0.08 µM): 1.11
relative viability (AZ628; 0.253 µM): 0.833
relative viability (AZ628; 0.8 µM): 0.766
relative viability (AZ628; 2.53 µM): 0.746
relative viability (AZ628; 8 µM): 0.456
relative viability (QS11; 0.08 µM): 0.738
relative viability (QS11; 0.253 µM): 0.903
relative viability (QS11; 0.8 µM): 0.827
relative viability (QS11; 2.53 µM): 0.823
relative viability (QS11; 8 µM): 0.669
relative viability (Darinaparsin; 0.08 µM): 0.929
relative viability (Darinaparsin; 0.8 µM): 1.01
relative viability (Darinaparsin; 8 µM): 1.28
